Test results published in ChEMBL document CHEMBL3832066, “DailyMed|setid=891194e8-7083-4438-8d27-c72f2372e40f | ISOSORBIDE MONONITRATE - isosorbide mononitrate tablet, extended release|Mckesson Contract Packaging”.
“And” between values parts separate entries of the source, which are not always exact repeats. Equal entries are not always repeated.

Legend:
Type in all cases: ADME, organism-based
Homo sapiens [1] = assay: (§1) Pharmacokinetic parameters for Isosorbide mononitrate after single oral dose administration of 60 mg Isosorbide mononitrate solution or table to subjects.; set-up: dose 60 mg, route oral; conditions: in vivo, po, dosed compound id 10, dosed compound name ISOSORBIDE MONONITRATE, regimen Single dose, tissue Plasma
[2] = as §1; set-up: dose 60 mg, route oral; conditions: human, in vivo, dosed compound id 10, dosed compound name ISOSORBIDE MONONITRATE, regimen Single dose, tissue Plasma
Homo sapiens [3] = assay: (§2) Pharmacokinetic parameters for Isosorbide mononitrate after multiple oral dose administrations of 60 and 120 mg Isosorbide mononitrate tablets to subjects; set-up: dose 120 mg, dose 60 mg, route oral; conditions: in vivo, po, dosed compound id 10, dosed compound name ISOSORBIDE MONONITRATE, regimen Multiple dose, tissue Plasma
[4] = as §2; set-up: dose 120 mg, dose 60 mg, route oral; conditions: human, in vivo; dose 60 mg, dosed compound id 10, dosed compound name ISOSORBIDE MONONITRATE, regimen Multiple dose, route oral, tissue Plasma

O=[N+]([O-])O[C@@H]1CO[C@H]2[C@@H]1OC[C@@H]2O [ISOSORBIDE MONONITRATE]
CL/F (Homo sapiens [1]; dose 60 mg): 120 to 122 mL/min | t1/2 (Homo sapiens [1]; dose 60 mg): 4.8 to 5.1 h | AUC (Homo sapiens [1]): 8190 to 8310 ng·h/mL | Cmax (Homo sapiens [1]): 424 to 541 ng/mL and 1240 to 1530 ng/mL | AUC ([2]; po, 60 mg): 5990 to 7450 ng·h/mL | CL/F ([2]; dose 60 mg, route oral): 151 to 187 mL/min | half-life ([2]; dose 60 mg, route oral): 6.3 to 6.6 h | CL/F (Homo sapiens [3]; dose 120 mg): 119 to 140 mL/min | Tmax (Homo sapiens [3]; dose 120 mg): 3.1 to 3.2 h | AUC (Homo sapiens [3]): 6620 to 7560 ng·h/mL and 14200 to 16800 ng·h/mL | Cmax (Homo sapiens [3]): 557 to 572 ng/mL and 1150 to 1180 ng/mL | CL/F [4]: 132 to 151 mL/min | Tmax [4]: 2.9 to 4.2 h | half-life [4]: 6.2 to 6.3 h
